From ChEMBL document CHEMBL1201862, “PubChem BioAssay data set” (2004)
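Growth conditions: 96-well plates. Treatment: test compound, 48 hours, 5 concentrations. Analysis: linear interpolation between bracketing concentrations; unreached endpoints set to highest concentration. GI50 = concentration required for 50% inhibition of growth.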 Calls of active or inactive are those of the source. Cut-off read from the data, not from the text of the source: active = GI50 up to about 1.1 µM and inactive = higher.

Experiments:
Test in all cases: DTP human tumour cell line panel, 48 h
[1] = system: 786-0
[2] = system: A498
[3] = system: A549
[4] = system: ACHN
[5] = system: CCRF-CEM
[6] = system: COLO 205
[7] = system: DU-145
[8] = system: EKVX
[9] = system: HCC 2998
[10] = system: HCT-116
[11] = system: HCT-15
[12] = system: HL-60
[13] = system: HOP-62
[14] = system: HOP-92
[15] = system: HT-29
[16] = system: Hs-578T
[17] = system: IGROV-1
[18] = system: K562
[19] = system: KM12
[20] = system: LOX IMVI
[21] = system: M14
[22] = system: MCF7
[23] = system: MDA-MB-231
[24] = system: MDA-MB-435
[25] = system: MDA-N
[26] = system: MOLT-4
[27] = system: Malme-3M
[28] = system: NCI-H226
[29] = system: NCI-H23
[30] = system: NCI-H460
[31] = system: NCI-H522
[32] = system: NCI/ADR-RES
[33] = system: OVCAR-3
[34] = system: OVCAR-4
[35] = system: OVCAR-5
[36] = system: OVCAR-8
[37] = system: PC-3
[38] = system: RXF 393
[39] = system: SF-268
[40] = system: SF-295
[41] = system: SF-539
[42] = system: SK-MEL-28
[43] = system: SK-MEL-5
[44] = system: SK-OV-3
[45] = system: SN12C
[46] = system: SNB-19
[47] = system: SNB-75
[48] = system: SR
[49] = system: SW-620
[50] = system: T47D
[51] = system: TK-10
[52] = system: U-251
[53] = system: UACC-257
[54] = system: UACC-62
[55] = system: UO-31
[56] = system: BT-549
[57] = system: SK-MEL-2
[58] = system: CAKI-1
[59] = system: RPMI-8226

Structure (SMILES): O[C@H]1[C@H](O)[C@@H](O)[C@@]2(O)C[C@@H](O)[C@@H]1N2
- GI50 [1]: > 100 µM (inactive)
- GI50 [2]: > 100 µM (inactive)
- GI50 [3]: > 100 µM (inactive)
- GI50 [4]: > 100 µM (inactive)
- GI50 [5]: > 100 µM (inactive)
- GI50 [6]: > 100 µM (inactive)
- GI50 [7]: > 100 µM (inactive)
- GI50 [8]: > 100 µM (inactive)
- GI50 [9]: > 100 µM (inactive)
- GI50 [10]: > 100 µM (inactive)
- GI50 [11]: > 100 µM
- GI50 [12]: > 100 µM (inactive)
- GI50 [13]: > 100 µM (inactive)
- GI50 [14]: > 100 µM (inactive)
- GI50 [15]: > 100 µM (inactive)
- GI50 [16]: > 100 µM (inactive)
- GI50 [17]: > 100 µM (inactive)
- GI50 [18]: > 100 µM (inactive)
- GI50 [19]: > 100 µM (inactive)
- GI50 [20]: > 100 µM (inactive)
- GI50 [21]: > 100 µM (inactive)
- GI50 [22]: > 100 µM (inactive)
- GI50 [23]: > 100 µM (inactive)
- GI50 [24]: > 100 µM (inactive)
- GI50 [25]: > 100 µM (inactive)
- GI50 [26]: > 100 µM (inactive)
- GI50 [27]: > 100 µM (inactive)
- GI50 [28]: > 100 µM (inactive)
- GI50 [29]: > 100 µM (inactive)
- GI50 [30]: > 100 µM (inactive)
- GI50 [31]: > 100 µM (inactive)
- GI50 [32]: > 100 µM (inactive)
- GI50 [33]: > 100 µM (inactive)
- GI50 [34]: > 100 µM (inactive)
- GI50 [35]: > 10 µM (inactive)
- GI50 [36]: > 100 µM (inactive)
- GI50 [37]: > 100 µM (inactive)
- GI50 [38]: > 100 µM (inactive)
- GI50 [39]: > 100 µM (inactive)
- GI50 [40]: > 100 µM (inactive)
- GI50 [41]: > 100 µM (inactive)
- GI50 [42]: > 100 µM (inactive)
- GI50 [43]: > 100 µM (inactive)
- GI50 [44]: > 100 µM (inactive)
- GI50 [45]: > 100 µM (inactive)
- GI50 [46]: > 100 µM (inactive)
- GI50 [47]: > 100 µM (inactive)
- GI50 [48]: > 100 µM (inactive)
- GI50 [49]: > 100 µM (inactive)
- GI50 [50]: > 100 µM (inactive)
- GI50 [51]: > 100 µM (inactive)
- GI50 [52]: > 100 µM (inactive)
- GI50 [53]: > 100 µM (inactive)
- GI50 [54]: > 100 µM (inactive)
- GI50 [55]: 85.7 µM (inactive)

Structure (SMILES): COc1ccc(OC)c2c3c([nH]c12)C(=O)Nc1nc(N)nc(N)c1C3
- GI50 [1]: > 100 µM (inactive)
- GI50 [56]: > 100 µM (inactive)
- GI50 [7]: > 100 µM (inactive)
- GI50 [8]: > 100 µM (inactive)
- GI50 [9]: > 100 µM (inactive)
- GI50 [14]: > 100 µM (inactive)
- GI50 [15]: 1.12 µM (inactive)
- GI50 [18]: 0.634 µM (active)
- GI50 [19]: 4.57 µM (inactive)
- GI50 [20]: > 100 µM (inactive)
- GI50 [21]: > 100 µM (inactive)
- GI50 [24]: 0.273 µM (active)
- GI50 [27]: 30.8 µM (inactive)
- GI50 [28]: > 100 µM (inactive)
- GI50 [33]: 3.14 µM (inactive)
- GI50 [34]: > 100 µM (inactive)
- GI50 [35]: > 100 µM (inactive)
- GI50 [36]: 4.89 µM (inactive)
- GI50 [38]: > 100 µM (inactive)
- GI50 [42]: > 100 µM (inactive)
- GI50 [57]: > 100 µM (inactive)
- GI50 [44]: > 100 µM (inactive)
- GI50 [49]: 2.07 µM (inactive)
- GI50 [50]: > 100 µM (inactive)
- GI50 [51]: > 100 µM (inactive)
- GI50 [53]: > 100 µM (inactive)

Structure (SMILES): COc1ccc2nc3ccc(OC)cc3c([S+]([O-])Cc3ccccc3)c2c1 (stereo unspecified)
- GI50 [1]: 2.21 µM (inactive)
- GI50 [2]: 17 µM (inactive)
- GI50 [3]: 19.1 µM (inactive)
- GI50 [4]: 4.03 µM (inactive)
- GI50 [56]: 14.3 µM (inactive)
- GI50 [58]: 12.8 µM (inactive)
- GI50 [5]: 2.65 µM (inactive)
- GI50 [6]: 7.26 µM (inactive)
- GI50 [7]: 2.07 µM (inactive)
- GI50 [8]: 16.3 µM (inactive)
- GI50 [9]: 19.4 µM (inactive)
- GI50 [10]: 2.45 µM (inactive)
- GI50 [11]: 6.61 µM
- GI50 [12]: 3.84 µM (inactive)
- GI50 [13]: 18 µM (inactive)
- GI50 [14]: 4.76 µM (inactive)
- GI50 [15]: 3.05 µM (inactive)
- GI50 [16]: 8.22 µM (inactive)
- GI50 [17]: 7.96 µM (inactive)
- GI50 [18]: 8.51 µM (inactive)
- GI50 [19]: 17.8 µM (inactive)
- GI50 [20]: 2.07 µM (inactive)
- GI50 [21]: 14.4 µM (inactive)
- GI50 [22]: 2.3 µM (inactive)
- GI50 [23]: 16 µM (inactive)
- GI50 [24]: 12.8 µM (inactive)
- GI50 [26]: 2.79 µM (inactive)
- GI50 [27]: 2.42 µM (inactive)
- GI50 [28]: 19.4 µM (inactive)
- GI50 [29]: 8.81 µM (inactive)
- GI50 [30]: 25.5 µM (inactive)
- GI50 [31]: 1.65 µM (inactive)
- GI50 [32]: 20.3 µM (inactive)
- GI50 [33]: 13.1 µM (inactive)
- GI50 [34]: 14.9 µM (inactive)
- GI50 [35]: 15.7 µM (inactive)
- GI50 [36]: 3.48 µM (inactive)
- GI50 [37]: 14.2 µM (inactive)
- GI50 [59]: 2.3 µM (inactive)
- GI50 [38]: 13.6 µM (inactive)
- GI50 [39]: 16.9 µM (inactive)
- GI50 [40]: 17.8 µM (inactive)
- GI50 [41]: 7.73 µM (inactive)
- GI50 [42]: 9.33 µM (inactive)
- GI50 [57]: 17 µM (inactive)
- GI50 [43]: 16.8 µM (inactive)
- GI50 [44]: 18.8 µM (inactive)
- GI50 [45]: 7.62 µM (inactive)
- GI50 [46]: 18 µM (inactive)
- GI50 [47]: 15.5 µM (inactive)
- GI50 [48]: 3.04 µM (inactive)
- GI50 [49]: 3.89 µM (inactive)
- GI50 [50]: 2.11 µM (inactive)
- GI50 [51]: 7.71 µM (inactive)
- GI50 [52]: 20.5 µM (inactive)
- GI50 [53]: 7.8 µM (inactive)
- GI50 [54]: 14.8 µM (inactive)
- GI50 [55]: 6.87 µM (inactive)

Structure (SMILES): COc1ccc(-c2cc(O)c3cc(C)cnc3n2)cc1
- GI50 [2]: 7.29 µM (inactive)
- GI50 [3]: 8.65 µM (inactive)
- GI50 [4]: 7.06 µM (inactive)
- GI50 [56]: 2 µM (inactive)
- GI50 [58]: 6.11 µM (inactive)
- GI50 [5]: 3.21 µM (inactive)
- GI50 [6]: 3.22 µM (inactive)
- GI50 [7]: 19.2 µM (inactive)
- GI50 [8]: 37 µM (inactive)
- GI50 [9]: 14.5 µM (inactive)
- GI50 [11]: 3.23 µM
- GI50 [13]: 6.56 µM (inactive)
- GI50 [14]: 13.8 µM (inactive)
- GI50 [15]: 2.21 µM (inactive)
- GI50 [16]: 4.66 µM (inactive)
- GI50 [17]: 4.12 µM (inactive)
- GI50 [18]: 2.29 µM (inactive)
- GI50 [19]: 3.56 µM (inactive)
- GI50 [20]: 6.5 µM (inactive)
- GI50 [21]: 3.94 µM (inactive)
- GI50 [22]: 2.72 µM (inactive)
- GI50 [23]: 16.2 µM (inactive)
- GI50 [24]: 1.85 µM (inactive)
- GI50 [26]: 4.43 µM (inactive)
- GI50 [27]: 4.67 µM (inactive)
- GI50 [28]: 13 µM (inactive)
- GI50 [29]: 6.19 µM (inactive)
- GI50 [31]: 4.01 µM (inactive)
- GI50 [32]: 3.73 µM (inactive)
- GI50 [34]: 33.9 µM (inactive)
- GI50 [35]: 93.8 µM (inactive)
- GI50 [36]: 4.57 µM (inactive)
- GI50 [59]: 3.73 µM (inactive)
- GI50 [38]: 7.94 µM (inactive)
- GI50 [39]: 6.81 µM (inactive)
- GI50 [41]: 6.41 µM (inactive)
- GI50 [42]: 28.6 µM (inactive)
- GI50 [57]: 3.5 µM (inactive)
- GI50 [44]: 4.14 µM (inactive)
- GI50 [45]: 5.13 µM (inactive)
- GI50 [46]: > 100 µM (inactive)
- GI50 [49]: 3.24 µM (inactive)
- GI50 [50]: 5.38 µM (inactive)
- GI50 [51]: 2.86 µM (inactive)
- GI50 [53]: 5.64 µM (inactive)
- GI50 [54]: 4.29 µM (inactive)
- GI50 [55]: 7.85 µM (inactive)
